We go through eight molecules from ChEMBL document CHEMBL3046917, “Antimicrobial evaluation of 4-methylsulfanyl benzylidene/3-hydroxy benzylidene hydrazides and QSAR studies” (2012).

What all share (type): functional
Assay [1] relates to Bacillus subtilis. As to the kind of experiment: Ratio of MBC to MIC for Bacillus subtilis MTCC 2063.
Assay [2] has as its system Bacillus subtilis. The assay can be described thus: Bacteriostatic activity against Bacillus subtilis MTCC 2063 after 24 hr by tube dilution method.
The test system of assay [3] is Bacillus subtilis. The assay can be described thus: Bactericidal activity against Bacillus subtilis MTCC 2063.
Assay [4] concerns Aspergillus niger. As to the kind of experiment: Ratio of MFC to MIC for Aspergillus niger MTCC 8189.
Assay [5] relates to Aspergillus niger. The assay can be described thus: Fungicidal activity against Aspergillus niger MTCC 8189.
In assay [6] the test system is Escherichia coli. As to the kind of experiment: Ratio of MBC to MIC for Escherichia coli MTCC 1652.
Assay [7] deals with Escherichia coli. The assay can be described thus: Bactericidal activity against Escherichia coli MTCC 1652.
Assay [8] deals with Candida albicans. The assay can be described thus: Ratio of MFC to MIC for Candida albicans MTCC 227.
For assay [9], the system named is Staphylococcus aureus. The assay can be described thus: Bacteriostatic activity against Staphylococcus aureus MTCC 2901 after 24 hr by tube dilution method.
The test system of assay [10] is Aspergillus niger. As to the kind of experiment: Fungistatic activity against Aspergillus niger MTCC 8189 after 7 days by tube dilution method.
Assay [11] concerns Candida albicans. As to the kind of experiment: Fungicidal activity against Candida albicans MTCC 227.
Assay [12] concerns Candida albicans. The assay can be described thus: Fungistatic activity against Candida albicans MTCC 227 after 48 hr by tube dilution method.
The subject of assay [13] is Escherichia coli. The assay can be described thus: Bacteriostatic activity against Escherichia coli MTCC 1652 after 24 hr by tube dilution method.
Assay [14] relates to Staphylococcus aureus. As to the kind of experiment: Bactericidal activity against Staphylococcus aureus MTCC 2901.
For assay [15], the system named is Staphylococcus aureus. The assay can be described thus: Ratio of MBC to MIC for Staphylococcus aureus MTCC 2901.

≈ marks a conversion by molar mass, not a printed value.

With `CCCCCCCCCCCCCCCCCC(=O)N/N=C/c1ccc(SC)cc1`, the Ratio with Bacillus subtilis [1], with Aspergillus niger [4], in the assay with Escherichia coli [6], in the assay with Candida albicans [8] and with Staphylococcus aureus [15] was 3 throughout. For the same molecule, the “-logMIC” value with Bacillus subtilis [2] was 0.64; in the assay on Staphylococcus aureus [9], 0.94; with Aspergillus niger [10] it was 0.7; in the assay on Candida albicans [12], 0.7; in the assay with Escherichia coli [13] it was 1.65. Further, the figures for the MBC against Bacillus subtilis [3], against Escherichia coli [7] and in the assay on Staphylococcus aureus [14] were > 115 µM, 28 µM (≈ 12.1 µg/mL) and > 115 µM, respectively. Further, the MFC (usually the smallest concentration meeting the test's criterion for killing the fungus) in the assay on Aspergillus niger [5] was 115 µM (≈ 49.8 µg/mL); in the assay with Candida albicans [11] it was > 115 µM.

As to `C/C=C/C=C/C(=O)N/N=C/c1ccc(SC)cc1`, the Ratio in the assay on Bacillus subtilis [1], with Aspergillus niger [4], with Escherichia coli [6], with Candida albicans [8] and with Staphylococcus aureus [15] was 3 in each case. For the same molecule, the “-logMIC” value was 0.72 with Bacillus subtilis [2]; 1.02 with Staphylococcus aureus [9]; 1.32 in the assay with Aspergillus niger [10]; 1.32 with Candida albicans [12]; 1.32 in the assay with Escherichia coli [13]. Moreover, the figures for the MBC against Bacillus subtilis [3], in the assay with Escherichia coli [7] and against Staphylococcus aureus [14] were > 192 µM, > 192 µM and 192 µM (≈ 50 µg/mL), respectively. Further, the MFC was 96 µM (≈ 25 µg/mL) against Aspergillus niger [5] and > 192 µM in the assay on Candida albicans [11].

For the molecule `CSc1ccc(/C=N/NC(=O)/C=C/c2ccccc2)cc1`, the Ratio with Bacillus subtilis [1], in the assay on Aspergillus niger [4], in the assay with Escherichia coli [6], with Candida albicans [8] and with Staphylococcus aureus [15] was 3 in each case. Moreover, the “-logMIC” value with Bacillus subtilis [2] is on record as 1.68; with Staphylococcus aureus [9], 1.68; in the assay on Aspergillus niger [10], 1.37; with Candida albicans [12], 1.37; in the assay on Escherichia coli [13] it was 1.68. Moreover, the figures for the MBC against Bacillus subtilis [3], with Escherichia coli [7] and in the assay with Staphylococcus aureus [14] were > 168 µM, 168 µM (≈ 49.8 µg/mL) and > 168 µM, respectively. For the same molecule, the MFC against Aspergillus niger [5] is > 168 µM; with Candida albicans [11], 84 µM (≈ 24.9 µg/mL).

Consider `CSc1ccc(/C=N/NC(=O)c2cccc(C)c2)cc1`, for which the Ratio in the assay with Bacillus subtilis [1], in the assay with Aspergillus niger [4], in the assay on Escherichia coli [6], in the assay on Candida albicans [8] and with Staphylococcus aureus [15] was 3 in each case. Also, the “-logMIC” value in the assay on Bacillus subtilis [2] was determined as 1.06; in the assay on Staphylococcus aureus [9] it was 1.55; in the assay with Aspergillus niger [10] it was 1.7; in the assay with Candida albicans [12], 1.67; in the assay with Escherichia coli [13], 1.66. Further, the results for the MBC against Bacillus subtilis [3], in the assay with Escherichia coli [7] and against Staphylococcus aureus [14] were > 176 µM, 176 µM (≈ 50.1 µg/mL) and > 176 µM, respectively. Moreover, the minimum fungicidal concentration (MFC) in the assay with Aspergillus niger [5] came to 88 µM (≈ 25 µg/mL); in the assay on Candida albicans [11], 176 µM (≈ 50.1 µg/mL).

For `CSc1ccc(/C=N/NC(=O)c2ccc(C)cc2)cc1`, the Ratio in the assay on Bacillus subtilis [1], in the assay with Aspergillus niger [4], with Escherichia coli [6], in the assay with Candida albicans [8] and in the assay on Staphylococcus aureus [15] was 3 throughout. Besides, the “-logMIC” value came out at 1.96 with Bacillus subtilis [2]; 1.66 in the assay with Staphylococcus aureus [9]; 1.66 in the assay on Aspergillus niger [10]; 1.96 in the assay with Candida albicans [12]; 1.96 with Escherichia coli [13]. Also, the figures for the minimum bactericidal concentration (MBC) in the assay with Bacillus subtilis [3], in the assay with Escherichia coli [7] and with Staphylococcus aureus [14] were 44 µM (≈ 12.5 µg/mL), 88 µM (≈ 25 µg/mL) and > 176 µM, respectively. In addition, the MFC in the assay on Aspergillus niger [5] and in the assay with Candida albicans [11] was 88 µM (≈ 25 µg/mL) in each case.

Take `COc1ccc(C(=O)N/N=C/c2ccc(SC)cc2)cc1OC`: the Ratio in the assay on Bacillus subtilis [1], with Aspergillus niger [4], in the assay with Escherichia coli [6], in the assay with Candida albicans [8] and in the assay on Staphylococcus aureus [15] was 3 throughout. Also, the “-logMIC” value came out at 1.42 with Bacillus subtilis [2]; 1.72 in the assay on Staphylococcus aureus [9]; 1.59 in the assay on Aspergillus niger [10]; 1.42 in the assay with Candida albicans [12]; 1.7 in the assay with Escherichia coli [13]. For the same molecule, the results for the MBC against Bacillus subtilis [3], in the assay with Escherichia coli [7] and against Staphylococcus aureus [14] were > 151 µM, > 151 µM and 37 µM (≈ 12.2 µg/mL), respectively. Moreover, the MFC against Aspergillus niger [5] and in the assay with Candida albicans [11] was > 151 µM throughout.

With `CSc1ccc(/C=N/NC(=O)c2cc([N+](=O)[O-])cc([N+](=O)[O-])c2)cc1`, the Ratio with Bacillus subtilis [1], in the assay with Aspergillus niger [4], in the assay on Escherichia coli [6], with Candida albicans [8] and with Staphylococcus aureus [15] was 3 each time. In addition, the “-logMIC” value in the assay on Bacillus subtilis [2] was determined as 2.06; in the assay with Staphylococcus aureus [9] it was 1.46; with Aspergillus niger [10], 2.06; in the assay with Candida albicans [12] it was 0.86; in the assay with Escherichia coli [13], 2.06. Further, the MBC (commonly the lowest tested concentration that kills the bacteria rather than only halting them) against Bacillus subtilis [3] came out at 69 µM (≈ 24.9 µg/mL); with Escherichia coli [7], 8 µM (≈ 2.88 µg/mL); in the assay with Staphylococcus aureus [14] it was 69 µM (≈ 24.9 µg/mL). In addition, the MFC with Aspergillus niger [5] is 69 µM (≈ 24.9 µg/mL); against Candida albicans [11] it was > 138 µM.

As for `CCCCCCCCCCCC(=O)N/N=C/c1cccc(O)c1`, the Ratio in the assay with Bacillus subtilis [1], with Aspergillus niger [4], in the assay with Escherichia coli [6], in the assay on Candida albicans [8] and with Staphylococcus aureus [15] was 3 each time. In addition, the “-logMIC” value in the assay with Bacillus subtilis [2] was determined as 0.8; with Staphylococcus aureus [9] it was 0.98; in the assay on Aspergillus niger [10], 1.71; in the assay with Candida albicans [12] it was 1.1; with Escherichia coli [13], 0.98. The minimal bactericidal concentration (MBC) in the assay with Bacillus subtilis [3] was 157 µM (≈ 50 µg/mL); in the assay with Escherichia coli [7] it was 157 µM (≈ 50 µg/mL); with Staphylococcus aureus [14], > 157 µM. For the same molecule, the minimal fungicidal concentration (MFC) is 78 µM (≈ 24.8 µg/mL) with Aspergillus niger [5] and 157 µM (≈ 50 µg/mL) against Candida albicans [11].
